Assay results published in ChEMBL document CHEMBL3507680, “University of Dundee, Gates Library screen for HepG2 cell viability”.

Experiment: Human HepG2 cell viability assay in 384 well format
Type: toxicity, cell-based
Set-up: dose 125 nL, time 70.5 hour; cytotoxicity at 70.5 h: concentration not given beside the values
Details: HepG2 cells, read-out: Inhibition

Compound	cytotoxicity at 70.5 h [%]
Cc1cc(CNC(=O)N2CCN(C(C)c3cccnc3)CC2)c(C)o1 (stereo not given)	-0.922
CCOCCCNC(=O)CCSCc1csc(C)n1	-2.1
CS(=O)(=O)NCC1CCCCN1C(=O)c1ccsc1 (stereo not given)	-2.66
CN(Cc1ccccc1F)C(C(N)=O)c1ccccc1 (stereo not given)	5.98
Cc1cc(C2CCCN2Cc2ccc(S(=O)(=O)N3CCCC3)o2)on1 (stereo not given)	-102
CC(C)N(C)C(=O)c1ccc(CNc2cncc(Cl)n2)cc1	-115
CC(C)CC(=O)N1CCN(Cc2csc(-c3ncccn3)n2)CC1	-5.3
CCSc1cc(C(=O)NCCc2nnc(-c3ccco3)[nH]2)ccn1	20.1
CC(C)C(C)NC(=O)Nc1cccc2c1CCN(S(C)(=O)=O)C2 (stereo not given)	-2.03
Cc1c(C(=O)NCC(C)C)nnn1-c1cccc2c1CCN(C(C)C)C2	-0.43
CCS(=O)(=O)N1CCc2c(cccc2NC(=O)NCCO)C1	12.8
CC(=O)Nc1cccc(OCCNC(=O)N(C)Cc2ccncc2)c1	20.7
COc1ccccc1OCCC(=O)NC1CCc2nc(C)cn2C1 (stereo not given)	-3.16
Cc1cn2c(n1)CCC(NC(=O)CCC1CC1)C2 (stereo not given)	-3.09
CCC(Nc1cccc(Oc2ccccn2)c1)C(N)=O (stereo not given)	-7.08
Cn1ncnc1CNC(=O)N(CCCO)C1CCc2ccccc21 (stereo not given)	-6.34
COc1cc(C(=O)N(Cc2cccs2)C2CC2)cc2c1OCCO2	16
Cc1cn2c(n1)CCC(NC(=O)CCCOCc1ccccc1)C2 (stereo not given)	-12.5
CCc1nnc(CN2CCCC(Cn3nc(C)nc3C)C2)o1 (stereo not given)	-11.6
COc1ccc(CC(=O)NC2CCc3nc(C)cn3C2)cc1 (stereo not given)	-7.41

Compound	cytotoxicity at 70.5 h [%]
CN(C(=O)Cn1nc(-c2ccc(F)cc2)oc1=O)c1ccccc1	-11.5
Cc1cccnc1NC(=O)CNC(=O)c1ccccc1Cl	-14.5
O=C(NCC(O)c1ccc(F)cc1F)c1cccnc1O (stereo not given)	-15.5
O=C(NC1CC1)c1cc(NC(=O)N2CCCC2)ccc1Cl	-13.8
O=C(NC1CC1)c1cc(NC(=O)N2CCOCC2)ccc1Cl	-15.3
O=C(c1ccncc1)N1CCCC1C1CCN(Cc2ccccc2)CC1 (stereo not given)	0.737
CC(=O)N1CCCN(C(=O)Cc2ccc3c(c2)OCO3)CC1	-14.3
O=C(c1ccoc1)N1CCCC1C1CCN(Cc2ccccc2)CC1 (stereo not given)	23.5
Cc1nc(NC(=O)c2cccnc2N2CCOCC2)sc1C	-13.9
O=C(CN1CCC(C(=O)c2cc(F)ccc2F)CC1)NC1CC1	-12
CCOc1ncccc1C(=O)NCC(O)c1ccc(F)c(F)c1 (stereo not given)	-6.21
COCCNC(=O)Nc1ccc(C(=O)N2CCSCC2)cc1C	-12.4
Cc1n[nH]c(C2CN(C(=O)c3ccc4c(c3)CCCC4)CCO2)n1 (stereo not given)	21
Cc1n[nH]c(C2CN(C(=O)c3scnc3C)CCO2)n1 (stereo not given)	-7.66
CC(=O)Nc1nc(CN2CCCC2Cn2cccn2)cs1 (stereo not given)	-6.85
CCN(C(=O)C1CCC1)C(c1cccnc1)c1ccc2c(c1)CCO2 (stereo not given)	38.8
CCn1c(C)nnc1CN(C)C1CCN(CCc2cccs2)C1 (stereo not given)	10.5
CCN1CCCN(c2ncccc2C(=O)N2CCCCC2)CC1	9.71
Cc1nc(CNCC2CCCN2c2cccnn2)oc1C (stereo not given)	-4.96
CCOC(=O)N1CCN(CC(=O)Nc2ccc(F)cc2Cl)CC1	-8.51

Compound	cytotoxicity at 70.5 h [%]
CC(=O)c1c(F)cccc1N1CCC(NS(=O)(=O)c2ccccc2)CC1	1.15
O=C(Nc1nccs1)NC1CCOc2ccccc21 (stereo not given)	-1.72
Cc1ccc(S(=O)(=O)N(C)CC(N)=O)c(Cl)c1	-10.6
Cc1csc(N2CCN(C(=O)c3cc(Cl)c[nH]3)CC2)n1	-0.933
O=C(Cn1cc(NC(=O)c2ccc(F)cc2F)cn1)NC1CCCC1	-4.45
Cc1nn(C(C)C)c(C)c1NC(=O)c1ccc(F)cc1	-2.59
Cc1noc(C)c1CNC(=O)N1CCN(CC2CC2)CC1	-5.87
Cc1nn(C(C)C)c(C)c1NC(=O)c1cccnc1	1.88
CC1Cc2ccccc2N1Cc1occc1C(=O)NCC(=O)N(C)C (stereo not given)	-1.83
CCCN(C)c1ccc(C(=O)Nc2c(C)nn(C(C)C)c2C)cc1	-3.3
CCN(CC)c1ccc(NS(=O)(=O)c2cccnc2)cn1	-1.98
COc1cc(C)nc(N2CCN(C(=O)c3cc(Cl)c[nH]3)CC2)n1	-1.56
CNC(=O)COC(=O)c1ccoc1CN1c2ccccc2CC1C (stereo not given)	0.373
CC(C)Oc1cccc(C(O)CNC(=O)Nc2cccs2)c1 (stereo not given)	-4.72
CS(=O)(=O)c1ccc(OCCNCc2c(F)cccc2F)cc1	-3.48
CS(=O)(=O)c1ccc(OCCNCc2cccc(O)c2)cc1	-0.254
CCS(=O)(=O)N(C)C1CCN(c2cccc(F)c2C(C)=O)CC1	-4.38
CCN(C(=O)C1CC1)C(c1cccnc1)c1ccc2c(c1)CCO2 (stereo not given)	-5.96
COC(=O)CN1CCN(c2cccc(C)c2)CC1	-2.66
CC(NCc1ccc(OCC(N)=O)cc1)c1ccc(Cl)cc1 (stereo not given)	15.5
